From publication PMC9629855, “Development of ASIC1a ligand-gated ion channel drug screening assays across multiple automated patch clamp platforms” (Frontiers in Molecular Neuroscience, 2022)
“And” between values parts separate entries of the source, which are not always exact repeats. Equal entries are not always repeated. Where two headings read alike, the source gives them in different places. Bridges are numbered along the chain shown (N, C = ends). Where no end group is shown, it is not given here.

Assays:
hASIC1a [1] = target: T1, hASIC1a (Homo sapiens, UniProt P78348); set-up: host or cells: CHO; conditions: ref Diochot et al., 2012, cited from earlier work
T1 sequence (P78348 1-528): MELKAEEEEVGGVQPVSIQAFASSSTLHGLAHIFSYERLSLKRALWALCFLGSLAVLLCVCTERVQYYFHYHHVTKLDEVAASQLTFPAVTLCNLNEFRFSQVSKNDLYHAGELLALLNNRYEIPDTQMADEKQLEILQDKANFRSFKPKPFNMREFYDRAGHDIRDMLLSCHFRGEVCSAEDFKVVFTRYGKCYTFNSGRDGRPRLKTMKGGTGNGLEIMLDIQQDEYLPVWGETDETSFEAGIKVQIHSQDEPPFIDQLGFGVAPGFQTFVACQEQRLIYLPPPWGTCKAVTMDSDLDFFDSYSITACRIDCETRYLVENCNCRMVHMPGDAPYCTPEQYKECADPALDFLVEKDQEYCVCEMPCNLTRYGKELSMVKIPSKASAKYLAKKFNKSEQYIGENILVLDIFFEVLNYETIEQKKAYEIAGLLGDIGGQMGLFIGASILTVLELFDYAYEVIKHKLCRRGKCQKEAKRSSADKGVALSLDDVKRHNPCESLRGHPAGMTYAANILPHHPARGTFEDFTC

hASIC1a [2] = target: T1, hASIC1a; test: cell-based; set-up: host or cells: CHO (tetracycline-inducible); conditions: pH 6.5 agonist, QPatch 48 single hole; for IC50: 2 min pre-incubation
Experimental: (§1) CHO hASIC1a cells were cultured according to vendor instructions (B-SYS GmbH) and HEK cells using standard in-house methods. Both cell lines were harvested using optimized protocols and re-suspended in serum-free media (Gibco CHO-S-SFM from Thermo Fisher Scientific for CHO cells, and Ex-Cell 302 from Merck Sigma-Aldrich for HEK cells) to obtain a suspension of cells with smooth membranes and little debris, before transfer to the automated cell hotel consisting of a 60 ml plastic container (Sophion SB2050) and a magnetic stir bar to prevent cell clumping. An aliquot of cells is then aspirated into a 1 ml microcentrifuge tube and spun down (typically 150 g for 2.5 min) and the supernatant discarded before a user-defined volume of external solution is added by the robot and the cells re-suspended to achieve the desired final cell suspension density before application to primed QPlates. Cell capture, sealing and whole-cell access was achieved using optimized QPatch protocols before currents were recorded using a holding potential of −60 mV. […] Cells were washed three times with external pH 7.3 solution (5 μl) between applications of activating acidic solution to establish a stable ASIC1a current baseline. […] Each concentration of reference compound was applied to each cell before (i.e., during each pH 7.3 application period) and during each pH stimulus (IC50 mode). Thus, each concentration of test compound was pre-incubated with cells for at least 2 min before, and then during each acidic solution challenge, before wash-off in a neutral pH 7.3 solution that contained the next concentration of the same compound. Cells were allowed at least 2 min between applications of acidic solution to enable ASIC1a receptors to recover from desensitization.
(§2) Concentration-response xC50 curves from Patchliner and QPatch 48 experiments were calculated by plotting %inhibition (antagonists) or activation (pH) data against concentration in Prism software (GraphPad), using the variable sigmoidal dose-response function to fit the Hill equation with theoretical minimum block of 0% and maximum block of 100% and a free constant for Hill slope.
In addition, this protocol is designed to avoid tachyphylaxis associated with a more acidic pH stimulus, and it allows the development of a ligand-gated ASIC1a channel assay that can distinguish between agonists, partial agonists and antagonists. […] Compounds were tested using the cumulative concentration-response assay format shown in Figure 5A, which includes a 2 min pre-incubation period for each concentration to allow test samples to reach and equilibrate with their binding site(s) in the pore or large extracellular binding domain of ASIC1 receptor trimers. Agonist effects can also be detected during this period as membrane current data is recorded after every liquid addition. […] Mean inhibition data for each test sample is plotted against Log[compound] and fit with a concentration-response function.

[3] = tested on: endogenous proton-activated currents in HEK cells; test: cells; format: cell-based, human; conditions: HEK cells
Experimental: as §1
as §2, with “slope. Inward current amplitudes were compared to the response to a control pH application (typically pH 6.5) prior to antagonist application or excitation by solutions of different pH to enable calculation of %inhibition or %activation for each cell.” for “slope.”
To quickly confirm a previous publication that HEK cells express endogenous ASIC1a receptor channels and assess the suitability of this cell system for drug discovery screening on APC platforms, we utilized the medium throughput QPatch 48 device. The QPatch uses 48 well microfluidic planar borosilicate chips and coated titanium pipette tips to make whole-cell recordings and sequentially apply small liquid volumes to enable rapid activation followed by slower deactivation (wash-off) of ligand-gated ionotropic responses. HEK cells were voltage-clamped at −60 mV and maintained in external solution at pH 7.4 to avoid steady-state desensitization of ASIC1 receptor channels. Cells were stimulated by external solutions with pH values ranging between 7.0 and 5.5 that evoked rapidly activating inward currents, followed by wash-off in pH 7.4 solution.

hASIC1a [4] = target: T1, hASIC1a; test: QPatch 48 APC, CHO hASIC1a, multi-hole (10 hole X-plate) recordings; format: cell-based; set-up: host or cells: CHO (tetracycline-inducible)
Experimental: as §1, §2
Before employing a more efficient multi-hole assay it is important to establish that this variant of the APC whole-cell recording format returns the same biophysics and pharmacology as single cell recordings. To this end we ran some of the reference compounds detailed above in 10 hole “X-plate” mode on the QPatch 48.

TRPV1 receptor channels = tested on: TRPV1 receptor channels; set-up: method as in Diochot et al., 2012; conditions: ref Diochot et al., 2012; cited from earlier work
rat ASIC1a = tested on: rat ASIC1a; set-up: method as in Diochot et al., 2012; conditions: ref Diochot et al., 2012, read-out: IC50 potency for the rat ortholog; cited from earlier work
[5] = tested on: "ASIC1-like" pH-activated currents in rat dorsal root ganglion neurons; set-up: method as in Dubé et al., 2005; conditions: ref Dubé et al., 2005, read-out: Literature IC50; cited from earlier work
ASIC1a = tested on: ASIC1a; set-up: method as in Nagaeva et al., 2016; conditions: ref Nagaeva et al., 2016; cited from earlier work

For “Mambalgin-1 (LKCYQHGKVVTCHRDMKFCYHNTGMPFRNLKLILQGCSSSCSETENNKCCSTDRCNK; ends and bridges not checked; cysteine pairing not given here; UniProt P0DKR6 22-78, looked up) [snake toxin differing from Mambalgin-3 at one non-critical amino acid residue]”, the IC50 (hASIC1a [1]; Sun et al., 2018, read-out: quoted values against human ASIC1a channels) is listed as 127 nM and 197 nM.

Compound NC12CC3CC(CC(C3)C1)C2 [Amantadine] has an IC50 (hASIC1a [2]; read-out: IC50 potency) of 510000 nM and a Hill slope (hASIC1a [2]) of 0.9.

In the case of “LKCYQHGKVVTCHRDMKFCYHNIGMPFRNLKLILQGCSSSCSETENNKCCSTDRCNK (disulfide 3-19, 12-37, 41-49, 50-55) [Mambalgin-3]”, the “block of endogenous proton-activated currents” value ([3]; 300 nM) is reported as ~75%, the “potentiation of endogenous pH-evoked responses” value [3] is reported as “no evidence for such modulation” and the IC50 ([3]; pH 6.5 activation, QPatch 48, read-out: cumulative IC50) is reported as 119 nM. The IC50 (hASIC1a [4]) was 160 nM, the “Hill slope (Hn)” value (hASIC1a [4]; multi-hole recordings, QPatch 48) was 1.80 and the “inhibition of TRPV1 receptor channels” value (TRPV1 receptor channels) was “does not inhibit”. For the same compound, the IC50 (hASIC1a [1]; read-out: Literature IC50) was 127 nM, the IC50 (hASIC1a [2]; IC50 potency) was 160 nM and the Hill slope (hASIC1a [2]) was 1.8. For the same compound, the IC50 (rat ASIC1a) was 17 to 55 nM.

For CC(C)C1c2cc(C3CC3c3ccc4cc(C(=N)N)ccc4c3)ccc2CCN1C (centres unmarked) [A-317567], the IC50 [5] is given as 2000 nM, the IC50 (hASIC1a [2]; read-out: IC50 potency) is given as 660 nM and the Hill slope (hASIC1a [2]) is given as 0.9.

In the case of CC12CC3CC(C)(C1)CC(N)(C3)C2 [Memantine], the “Literature inhibition at 500 μM” value (ASIC1a) is given as 31% at 500 μM, the IC50 (hASIC1a [2]; read-out: IC50 potency) is given as 315000 nM and the Hill slope (hASIC1a [2]) is given as 1.1.

With N.N.N.N.N.N.N.N.N.N.N.N.N.N.[Cl-].[Cl-].[Cl-].[Cl-].[Cl-].[Cl-].[O-2].[O-2].[Ru+3].[Ru+3].[Ru+4] [Ruthenium Red] the “inhibition of amplitude of currents activated by pH 6.5” value ([3]; 1 μM Ruthenium Red) was 12 ± 7%.
